Each block holds one molecule with its values, some of them ahead of it.
Legend:
[1] = Antiproliferative activity against mouse MC3T3-E1 cells; format: toxicity, cell-based
A549 [2] = assay: Antiproliferative activity against human A549 cells; format: functional, cell-based
A549 [3] = assay: Antiproliferative activity against human A549 cells measured after 48 hrs by MTT assay; format: functional, cell-based; settings: A549, 48 h
HCT-116 [4] = assay: Antiproliferative activity against human HCT-116 cells measured after 48 hrs by MTT assay; format: functional, cell-based; settings: HCT-116, 48 h
MDA-MB-231 [5] = assay: Antiproliferative activity against human MDA-MB-231 cells measured after 48 hrs by MTT assay; format: functional, cell-based; settings: MDA-MB-231, 48 h
A549 [6] = assay: Antiproliferative activity against human A549 cells measured after 48 hrs; format: functional, cell-based; settings: A549, 48 h
HCT-116 [7] = assay: Antiproliferative activity against human HCT-116 cells measured after 48 hrs; format: functional, cell-based; settings: HCT-116, 48 h
MDA-MB-231 [8] = assay: Antiproliferative activity against human MDA-MB-231 cells measured after 48 hrs; format: functional, cell-based; settings: MDA-MB-231, 48 h
MCF7 = assay: Antiproliferative activity against human MCF7 cells assessed as inhibition of cell growth; format: functional, cell-based
A549 [9] = assay: Antiproliferative activity against human A549 cells assessed as inhibition of cell growth; format: functional, cell-based
HeLa = assay: Antiproliferative activity against human HeLa cells assessed as inhibition of cell growth; format: functional, cell-based
HT-29 = assay: Antiproliferative activity against human HT-29 cells; format: functional, cell-based
PANC-1 = assay: Antiproliferative activity against human PANC-1 cells; format: functional, cell-based
MDA-MB-231 [10] = assay: Antiproliferative activity against human MDA-MB-231 cells; format: functional, cell-based
[11] = Cytotoxicity activity against human HDF cells; format: toxicity, cell-based; settings: HDF cells (NHDF)

IC50 (A549 [2]): > 100 µM
Compound: O=C1c2ccccc2-n2c1nc1cc(Cl)ccc1c2=O
IC50 [1]: > 100 µM

IC50 (A549 [3]): > 100 µM
IC50 (HCT-116 [4]): 1.62 µM
IC50 (MDA-MB-231 [5]): 48.3 µM
Compound: CCN(CC)c1cccc2c1C(=O)c1nc3ccccc3c(=O)n1-2

IC50 (A549 [3]): > 100 µM
IC50 (HCT-116 [4]): > 100 µM
IC50 (MDA-MB-231 [5]): > 100 µM
IC50 (A549 [6]): > 100 µM
IC50 (HCT-116 [7]): > 100 µM
IC50 (MDA-MB-231 [8]): > 100 µM
Compound: O=C1c2c(N3CCCCC3)cccc2-n2c1nc1ccccc1c2=O

IC50 (A549 [3]): > 100 µM
IC50 (HCT-116 [4]): 45.6 µM
IC50 (MDA-MB-231 [5]): > 100 µM
Compound: CN1CCN(c2cccc3c2C(=O)c2nc4ccccc4c(=O)n2-3)CC1

IC50 (A549 [3]): 13.7 µM
IC50 (HCT-116 [4]): 90 µM
IC50 (MDA-MB-231 [5]): 56.1 µM
IC50 (A549 [6]): > 100 µM
IC50 (HCT-116 [7]): 1.62 µM
IC50 (MDA-MB-231 [8]): 48.3 µM
Compound: O=C1c2c(N3CCOCC3)cccc2-n2c1nc1ccccc1c2=O

IC50 (MCF7): 31.6 µM
IC50 (A549 [9]): 28.8 µM
IC50 (HeLa): 7.22 µM
Compound: O=C1C2C=CC=CC2=NC2/C(=N\Nc3nc(-c4ccc(O)cc4)cs3)c3ccccc3N12 (stereo not drawn)

IC50 (A549 [2]): > 100 µM
Compound: O=C1c2ccccc2-n2c1nc1ccc(F)c(Cl)c1c2=O
IC50 [1]: > 100 µM

IC50 (HT-29): 77.4 µM
IC50 (PANC-1): 49.4 µM
IC50 (MDA-MB-231 [10]): 47.9 µM
Compound: Cc1nn(Cl)c2c1[C@@]1(C(C#N)=C(N)O2)c2ccccc2-n2c1nc1ccccc1c2=O
IC50 [11]: > 100 µM

IC50 (MCF7): 52.3 µM
IC50 (A549 [9]): 63 µM
IC50 (HeLa): 40.2 µM
Compound: COc1ccc(-c2cs/c(=N/N=C3/c4ccccc4-n4c3nc3ccccc3c4=O)n2-c2ccccc2)cc1

IC50 (A549 [3]): > 100 µM
IC50 (HCT-116 [4]): > 100 µM
IC50 (MDA-MB-231 [5]): > 100 µM
IC50 (A549 [6]): > 100 µM
IC50 (HCT-116 [7]): > 100 µM
IC50 (MDA-MB-231 [8]): > 100 µM
Compound: O=C1c2c(N3CCN(c4ccccn4)CC3)cccc2-n2c1nc1ccccc1c2=O

IC50 (A549 [3]): > 100 µM
IC50 (HCT-116 [4]): > 100 µM
IC50 (MDA-MB-231 [5]): > 100 µM
IC50 (A549 [6]): > 100 µM
IC50 (HCT-116 [7]): > 100 µM
IC50 (MDA-MB-231 [8]): > 100 µM
Compound: O=C1c2c(ccc(F)c2N2CCN(C(=O)c3ccco3)CC2)-n2c1nc1ccccc1c2=O

IC50 (HT-29): 90.4 µM
IC50 (PANC-1): 21.4 µM
IC50 (MDA-MB-231 [10]): 60.8 µM
Compound: Cc1n[nH]c2c1[C@@]1(C(C#N)=C(N)O2)c2ccccc2-n2c1nc1ccccc1c2=O
IC50 [11]: > 100 µM

IC50 (A549 [3]): > 100 µM
IC50 (HCT-116 [4]): > 100 µM
IC50 (MDA-MB-231 [5]): > 100 µM
Compound: O=C1c2c(ccc(Cl)c2N2CCN(c3ccccn3)CC2)-n2c1nc1ccccc1c2=O

IC50 (A549 [3]): > 100 µM
IC50 (HCT-116 [4]): > 100 µM
IC50 (MDA-MB-231 [5]): 89.7 µM
Compound: CN(C)c1c(F)ccc2c1C(=O)c1nc3ccccc3c(=O)n1-2

IC50 (A549 [2]): > 100 µM
Compound: O=C1c2ccccc2-n2c1nc1ccc(Cl)c(Cl)c1c2=O
IC50 [1]: > 100 µM

IC50 (A549 [6]): > 100 µM
IC50 (HCT-116 [7]): > 100 µM
IC50 (MDA-MB-231 [8]): > 100 µM
Compound: CN(C)c1cccc2c1C(=O)c1nc3ccccc3c(=O)n1-2

IC50 (A549 [3]): 18.6 µM
IC50 (HCT-116 [4]): 25.7 µM
IC50 (MDA-MB-231 [5]): 14.7 µM
Compound: CN(C)c1c(Cl)ccc2c1C(=O)c1nc3ccccc3c(=O)n1-2

IC50 (A549 [3]): 22.8 µM
IC50 (HCT-116 [4]): > 100 µM
IC50 (MDA-MB-231 [5]): 32.8 µM
Compound: O=C1c2c(ccc(Cl)c2N2CCN(CCO)CC2)-n2c1nc1ccccc1c2=O

IC50 (MCF7): 45.9 µM
IC50 (A549 [9]): 52 µM
IC50 (HeLa): 65.5 µM
Compound: COc1ccc(-c2csc(N/N=C3/c4ccccc4N4C(=O)C5C=CC=CC5=NC34)n2)cc1 (stereo not drawn)

IC50 (A549 [2]): 1.03 µM
Compound: O=C1c2c(ccc(F)c2Cl)-n2c1nc1cc(Cl)ccc1c2=O
IC50 [1]: 82 µM

IC50 (A549 [3]): > 100 µM
IC50 (HCT-116 [4]): > 100 µM
IC50 (MDA-MB-231 [5]): 34.2 µM
Compound: O=C1c2c(N3CCN(CCO)CC3)cccc2-n2c1nc1ccccc1c2=O

IC50 (A549 [3]): > 100 µM
IC50 (HCT-116 [4]): > 100 µM
IC50 (MDA-MB-231 [5]): > 100 µM
Compound: CN1CCN(c2c(Cl)ccc3c2C(=O)c2nc4ccccc4c(=O)n2-3)CC1

IC50 (MCF7): 44.4 µM
IC50 (A549 [9]): 28.8 µM
IC50 (HeLa): 43.8 µM
Compound: N#Cc1ccc(-c2cs/c(=N/N=C3/c4ccccc4-n4c3nc3ccccc3c4=O)n2-c2ccccc2)cc1

IC50 (MCF7): 46.1 µM
IC50 (A549 [9]): 65.5 µM
IC50 (HeLa): 75.2 µM
Compound: O=c1c2ccccc2nc2n1-c1ccccc1/C2=N/N=c1/scc(-c2ccc(Cl)cc2)n1-c1ccccc1

IC50 (A549 [3]): 1.2 µM
IC50 (HCT-116 [4]): 2.01 µM
IC50 (MDA-MB-231 [5]): 0.8 µM
Compound: CCN(CC)c1c(F)ccc2c1C(=O)c1nc3ccccc3c(=O)n1-2

IC50 (A549 [3]): > 100 µM
IC50 (HCT-116 [4]): > 100 µM
IC50 (MDA-MB-231 [5]): > 100 µM
Compound: Cc1ccc2c(c1N1CCN(c3ccccn3)CC1)C(=O)c1nc3ccccc3c(=O)n1-2

IC50 (A549 [6]): > 100 µM
IC50 (HCT-116 [7]): > 100 µM
IC50 (MDA-MB-231 [8]): > 100 µM
Compound: O=C1c2cc(Cl)c(N3CCCCC3)cc2-n2c1nc1ccccc1c2=O

IC50 (MCF7): 31.6 µM
IC50 (A549 [9]): 64.9 µM
IC50 (HeLa): 55.5 µM
Compound: O=c1c2ccccc2nc2n1-c1ccccc1/C2=N/N=c1/scc(-c2ccc(Br)cc2)n1-c1ccccc1

Compound: Cc1ccc2c(c1N1CCNCC1)C(=O)c1nc3ccccc3c(=O)n1-2
IC50 (A549 [3]): > 100 µM
IC50 (HCT-116 [4]): 67.2 µM
IC50 (MDA-MB-231 [5]): 69.8 µM

IC50 (A549 [3]): > 100 µM
IC50 (HCT-116 [4]): > 100 µM
IC50 (MDA-MB-231 [5]): 58.7 µM
Compound: Cc1ccc2c(c1N1CCOCC1)C(=O)c1nc3ccccc3c(=O)n1-2

IC50 (A549 [3]): > 100 µM
IC50 (HCT-116 [4]): > 100 µM
IC50 (MDA-MB-231 [5]): > 100 µM
Compound: Cc1ccc2c(c1N1CCN(CCO)CC1)C(=O)c1nc3ccccc3c(=O)n1-2
